# Assay results as given in article PMC7321408, “One-Pot Multicomponent Synthesis and Bioevaluation of Tetrahydroquinoline Derivatives as Potential Antioxidants, α-Amylase Enzyme Inhibitors, Anti-Cancerous and Anti-Inflammatory Agents” (Molecules, 2020).
# Read-outs that look alike come from different tables or passages of the source.
# Experiments:
# [1] = test system: brine shrimp nauplii; assay: Brine shrimp lethality bioassay; assay type: in vivo; conditions: 24 h, n = 3
# Outline: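 Ten hatched nauplii per well in artificial seawater were exposed to test compounds at 400, 200, 100 and 50 µg/mL under a lamp. Survivors counted after 24 h; percentage mortality calculated; triplicate.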
# [2] = DPPH free radical scavenging assay; conditions: mean ± SEM, n = 3
# Outline: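 Compounds at 200, 66.6, 22.2 and 7.4 µg/mL were mixed with DPPH radical, with DMSO as the negative control. Absorbance was read at 630 nm, and % scavenging was calculated as (1 − Abs/Abc) × 100 against the control.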
# [3] = test system: Hep-2C cells; assay: MTT assay against Hep-2C cells; assay type: cell-based, Human; conditions: Homo sapiens, Hep2C, read-out: IC50 (Mean ± SEM) Hep-2C Cells
# Description: Hep-2C cell line experiments were performed in the Immunology Lab of the National Institute of Health (NIH), Islamabad, Pakistan. Human cervix carcinoma cells Hep-2C (ATCC HB-8065) were cultured in Dulbecco’s modified Eagle’s medium (DMEM), comprising 10% fetal calf serum (10% FCS) and supplemented with 2 mM L-glutamine, 100 U/mL penicillin, 100 µg/mL streptomycin and 1 mM Na pyruvate, at 37 °C in a humidified 5% CO2 incubator.
# The tetrazolium dye 3-(4, 5-dimethyl thiazolyl-2)-2, 5-diphenyltetrazolium bromide (MTT) was used to assess the cytotoxic potential of the test compounds. In living cells, MTT is reduced into its insoluble purple product formazan, which is measured spectrophotometrically.
# Hep-2C cells, in a density of 1 × 10^6 (> 90% cell viability), were cultured in a 96-well plate and treated with different concentrations of the test compounds for 24, 48 and 72 h. Ten microliters of MTT (1 mg per mL) were added per well followed by incubation for 4 h. Insoluble formazan crystals were dissolved by adding 100 µL of DMSO. Cells were then incubated for another 2 h. Absorbance was measured at 570 nm by a microplate reader. Untreated Hep-2C cells were taken as controls and DMSO as a negative. % cell viability = (abssample − absblank)/(abscontrol − absblank) × 100
# [4] = test system: NO generated by LPS-induced macrophages; assay: Nitric oxide assay (Griess) in LPS-induced macrophages; assay type: cell-based, murine; conditions: Mus musculus, Macrophage, 18 h, LPS 1 µg/mL, read-out: % NO Production (Mean ± SEM)
# Outline: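 Murine macrophages (1 × 10^6/well) pre-treated 2 h with compound at 100, 50, 10 or 1 µM, then LPS 1 µg/mL for 18 h. Nitrite in medium measured with Griess reagent at 540 nm against a NaNO2 standard curve; piroxicam as positive control, t-test for significance.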
# [5] = MTT cytotoxicity against raw macrophages; assay type: cell-based, albino rats; conditions: albino, rat
# Outline: (§1)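 Peritoneal macrophages from albino rats were treated for 24 h at 37 °C, 5% CO2 with test compounds at 100, 50, 10 and 1 µM or vehicle, from DMSO stocks. MTT was then added for 2 h, formazan dissolved in DMSO and absorbance read at 570 nm. % viability = blank-corrected sample over blank-corrected control ×100.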
# [6] = test system: raw macrophages; assay: MTT cytotoxicity against raw macrophages; assay type: cell-based, albino rats; conditions: mean ± SEM, n = 3
# Outline: as §1
smiles,measurement,setting,value
"CCCN(CCC)CN1CCCc2ccccc21 [SF4, N-((3,4-dihydroquinolin-1(2H)-yl), methyl)-N-propylpropan-1 amine]",LD50 ± SEM (brine shrimp lethality),[1],100 ± 1.78 µg/mL
same,% DPPH Scavenging Activity,[2]; 7.4 µg/mL,18.12 ± 0.20%
same,% DPPH Scavenging Activity,[2]; 22.22 µg/mL,41.63 ± 0.28%
same,% DPPH Scavenging Activity,[2]; 66.66 µg/mL,53.65 ± 0.14%
same,% DPPH Scavenging Activity,[2]; 200 µg/mL,58.58 ± 0.33%
same,IC50 (DPPH radical scavenging),[2]; concentration to scavenge 50% of the DPPH radicals,29.79 ± 0.26 µg/mL
same,IC50,[3]; 24 h,23.9 ± 1.07 µM
same,IC50,[3]; 48 h,21.2 ± 1.2 µM
same,IC50,[3]; 72 h,15.5 ± 1.03 µM
same,activity at 1 µM,[4]; 1 µM,43.03 ± 0.41%
same,activity at 10 µM,[4]; 10 µM,39.17 ± 0.38%
same,activity at 50 µM,[4]; 50 µM,32.05 ± 0.31%
same,activity at 100 µM,[4]; 100 µM,20.2 ± 0.28%
same,"viability at 24 h, 1 µM","[5]; peritoneal macrophages (raw macrophages), 1 µM, raw macrophages, 24 h, MTT, read-out: % Cell Viability",79 ± 0.92%
same,"viability at 24 h, 10 µM","[5]; peritoneal macrophages (raw macrophages), 10 µM, raw macrophages, 24 h, MTT, read-out: % Cell Viability",53 ± 0.63%
same,"viability at 24 h, 50 µM","[5]; peritoneal macrophages (raw macrophages), 50 µM, raw macrophages, 24 h, MTT, read-out: % Cell Viability",42 ± 0.87%
same,"viability at 24 h, 100 µM","[5]; peritoneal macrophages (raw macrophages), 100 µM, raw macrophages, 24 h, MTT, read-out: % Cell Viability",39 ± 0.88%
same,IC50 at 24 h,"[5]; primary peritoneal macrophages, mean ± SEM, n = 3",7.208 ± 0.05 µM
same,IC50,[6],7.2 ± 0.05 µM
